Laboratory results as given in patent US9938301B2, “Dihydropyrimido fused ring derivative as HBV inhibitor” (QILU PHARMACEUTICAL CO., LTD., priority 2014, dated 2018).
Where two headings read alike, the source gives them in different places.

Tested on: HBV DNA in HepG2.2.15 cells
Experiment: HBV in vitro dot-blot hybridization test
Format: cell-based, Hepatitis B virus
Description: • 1. Purpose of the test: • The content of HBV DNA in HepG2.2.15 cells was detected by dot-blot hybridization test to evaluate an inhibitory action of the compound on HBV with an EC50 value as an indicator. • 2. Experimental materials: • 2.1 Cell lines: HepG2.2.15 Cells • HepG2.2.15 cell culture media (DMEM/F12, Invitrogen-11330057; 10% serum Invitrogen-10099141; 100 units/mL Penicillin and 10 μg/mL Streptomycin, Invitrogen-15140122; 1% non-essential amino acid, Invitrogen-11140076; 2 mM L-GLUTAMINE, Invitrogen-25030081; 300 µg/ml Geneticin, Invitrogen-10131027 • 2.2 Reagents: • Trypsin (I Invitrogen-25300062) • DPBS (Hyclone-SH30028.01B) • DMSO (Sigma-D2650-100ML) • 96-well cell-culture plate (Corning-3599) • CO2 incubator (HERA-CELL-240) • 20×SSC (Bio-serve Co. Ltd) • Tris-HCl (Aldirch-154563-1KG) • NaOH (Sinopharm 10019718) • NaCl (Sinopharm 10019308) • Hybridization solution (Major BioTech Co. Ltd, IMMUNE GOLD-HYB-500) • DIG Wash and Block Buffer set (Roche-11585762001) • Anti-digoxigenin-AP, Fab fragments from sheep (Roche-11093274910) • 2.3 Materials and Instruments: • Positively-Charged Nylon Membrane (GE-RPN2250B) • Transfer Membrane Instrument (Bio-Rad, 170-6545) • Hybridization Oven (HL-2000 Hybrilinker) • 3. Testing steps and Methods: • 3.1 HepG2.2.15 cells (4×10^4 cells/well) were planted into a 96-well plate, and at 37° C., 5% CO2 cultured overnight. • 3.2 On Day 2, the compounds were diluted in totally 6 concentrations with a dilution gradient of five times. The compounds at different concentrations were added into the culture wells in duplicate. The final concentration of DMSO in the culture media was 1%. 1 μM GLS4 was used as 100% inhibition control; 1% DMSO as 0% inhibition control. • 3.3 On Day 5, replacing with the fresh culture media containing the compound was performed. • 3.4 On Day 8 and Day 9, the culture media in the culture wells was removed, and the cells were harvested for dot-blot hybridization. • The lysate was added into a culture well, and at 37° C. incubating for half an hour to disintegrate cells; the supernatant was obtained by centrifugation and transferred into a new microplate; a denaturation solution was added, after sufficient mixing the denatured sample was transferred and imprinted onto a Nylon membrane, the nucleic acid was fixed onto the membrane by UV cross-linking. • Pre-hybridization: the membrane was incubated at 60° C. in a hybridization solution for 1 hour. • Hybridization: heating the denatured digoxin-labelled HBV DNA probe and incubating at 60° C. overnight. • Membrane Washing: performing high strigency washing twice, low strigency washing for 3 times. • Blocking: incubating the membrane at room temperature in a blocking solution for 30-60 minutes. • Hybridization: diluting the Antibody Solution with the blocking solution, in which the membrane was placed and incubated at room temperature for 30-60 minutes. • Developing: washing the membrane in a Detection Buffer for 5 minutes, followed by adding a developing solution, pressing and exposing. • The photos was saved in tiff format, and a gray value of the dot was quantified with quantity one software. • 3.5 Data Analysis: • 3.5.1 The inhibition percentage was calculated: % Inh.=[1−(sample dot gray value−1 μM GLS4 dot gray value 1)/(DMSO control dot gray value−1 μM GLS4 dot gray value 1)]×100. • 3.5.2 Calculating EC50: the concentration of the compound for 50% inhibition of HBV (EC50) was calculated by using GraphPad Prism Software. • 4.

[1] = Hepatitis B virus, HepG2.2.15, dot-blot hybridization assay, read-out: Concentration for 50% inhibition of HBV (EC50)value
[2] = Hepatitis B virus, HepG2.2.15, summary list of target compounds, Examples 1-165 (same as Table 2), read-out: BIOACTIVITY (inhibitory actions on HBV DNA, EC50)
[3] = summary list of target compounds, Examples 1-165 (same as Table 2), read-out: BIOACTIVITY (inhibitory actions on HBV DNA, EC50)

Compound	EC50 [1]	EC50 [2]	EC50 [3]	EC50 (dot-blot hybridization assay, read-out: Concentration for 50% inhibition of HBV (EC50)value)
COC(=O)C1=C2C[C@H](NS(=O)(=O)C3CC3)CN2C(c2nccs2)=N[C@H]1c1ccc(F)cc1Cl [Example 156]	< 100 nM	< 100 nM		
CCOC(=O)C1=C2CC(NC(=O)OC(C)C)CN2C(c2nccs2)=N[C@H]1c1ccc(F)cc1Br (mixture of isomers) [Example 45]	< 100 nM	< 100 nM		
CCOC(=O)C1=C2C[C@@H](C(N)=O)CN2C(c2nccs2)=NC1c1ccc(F)cc1Br (mixture of isomers) [Example 29]			100 to 500 nM	
CCOC(=O)C1=C2CCCN2C(c2nccs2)=NC1c1cccc(F)c1Cl (racemic) [Example 70]	100 to 500 nM	100 to 500 nM		
CCOC(=O)C1=C2C[C@H](NS(=O)(=O)C(F)F)CN2C(c2nccs2)=N[C@H]1c1ccc(F)cc1Br [Example 124]	< 100 nM	< 100 nM		
CCOC(=O)C1=C2CCCN2C(c2ccsn2)=NC1c1ccc(F)cc1Cl (racemic) [Example 77]	1000 to 5000 nM	1000 to 5000 nM		
CCOC(=O)C1=C2CN(C(=O)CN)CCN2C(c2nccs2)=N[C@H]1c1ccc(F)cc1Br [Example 89]	1000 to 5000 nM	1000 to 5000 nM		
CCOC(=O)C1=C2CN(Cc3ccc(OC)cc3)C[C@@H](C(=O)OC)N2C(c2nccs2)=N[C@H]1c1ccc(F)cc1Br [Example 115]	100 to 500 nM	100 to 500 nM		
CCOC(=O)C1=C2CC(NS(C)(=O)=O)CN2C(c2nccs2)=N[C@H]1c1ccc(F)cc1Br (mixture of isomers) [Example 57]	< 100 nM	< 100 nM		
CCOC(=O)C1=C2CN(S(C)(=O)=O)CCN2C(c2nccs2)=NC1c1ccc(F)cc1Br (racemic) [Example 87]	500 to 1000 nM	500 to 1000 nM		
CCOC(=O)C1=C2COC(=O)N2C(c2nccs2)=NC1c1ccc(F)cc1Br (racemic) [Example 67]	100 to 500 nM	100 to 500 nM		
CCOC(=O)C1=C2CC(NS(=O)(=O)C3CC3)CN2C(c2nccs2)=N[C@H]1c1ccc(F)cc1Br (mixture of isomers) [Example 60]	< 100 nM	< 100 nM		
CCOC(=O)C1=C2C[C@@H](C(N)=O)CN2C(c2nccs2)=N[C@H]1c1ccc(F)cc1Cl [Example 30]	100 to 500 nM	100 to 500 nM		
O=C(OCC(F)F)C1=C2CCCN2C(c2nccs2)=NC1c1ccc(F)cc1Br (racemic) [Example 81]	1000 to 5000 nM	1000 to 5000 nM		
CCOC(=O)C1=C2C[C@@H](N3CCOC3=O)CN2C(c2nccs2)=N[C@H]1c1ccc(F)cc1Br [Example 65]	100 to 500 nM	100 to 500 nM		
COCOC(=O)C1=C2CCCN2C(c2nccs2)=NC1c1ccc(F)cc1Br (racemic) [Example 80]	1000 to 5000 nM	1000 to 5000 nM		
CCOC(=O)C1=C2C[C@H](NS(=O)(=O)CC(=O)O)CN2C(c2nccs2)=N[C@H]1c1ccc(F)cc1Cl [Example 143]	100 to 500 nM	100 to 500 nM		
CCOC(=O)C1=C2C[C@@H](CNS(=O)(=O)C3CC3)CN2C(c2nccs2)=N[C@H]1c1ccc(F)cc1Br [Example 122]	1000 to 5000 nM	1000 to 5000 nM		
CCOC(=O)C1=C2CCCCN2C(c2nccs2)=NC1c1ccc(F)cc1Cl (racemic) [Example 109]	1000 to 5000 nM	1000 to 5000 nM		
CCOC(=O)C1=C2CN(C#N)CCN2C(c2nccs2)=N[C@H]1c1ccc(F)cc1Br [Example 101]	500 to 1000 nM	500 to 1000 nM		
CCOC(=O)C1=C2C[C@H](NS(=O)(=O)/C=C/F)CN2C(c2nccs2)=N[C@H]1c1ccc(F)cc1Cl [Example 129]	< 100 nM	< 100 nM		
CCOC(=O)C1=C2C[C@H](O)CN2C(c2nccs2)=N[C@@H]1c1ccc(F)cc1Cl [Example 35]	1000 to 5000 nM	1000 to 5000 nM		

Compound	EC50 [1]	EC50 [2]	EC50 [3]	EC50 (dot-blot hybridization assay, read-out: Concentration for 50% inhibition of HBV (EC50)value)
CCOC(=O)C1=C2C[C@H](NS(C)(=O)=O)CN2C(c2nccs2)=N[C@H]1c1ccc(Cl)cc1F [Example 150]	100 to 500 nM	100 to 500 nM		
CCOC(=O)C1=C2C[C@H](C(N)=O)CN2C(c2nccs2)=N[C@H]1c1ccc(F)cc1Cl [Example 31]	100 to 500 nM	100 to 500 nM		
CCOC(=O)C1=C2C[C@H](O)CN2C(c2nccs2)=N[C@H]1c1ccc(F)cc1Cl [Example 34]	100 to 500 nM	100 to 500 nM		
CCOC(=O)C1=C2C[C@H](NC(=O)OC(C)(C)C)CN2C(c2nccs2)=N[C@H]1c1ccc(F)cc1Br [Example 38]	< 100 nM	< 100 nM		
CCOC(=O)C1=C2C[C@H](c3nnn[nH]3)CN2C(c2nccs2)=N[C@H]1c1ccc(F)cc1Cl [Example 32]	1000 to 5000 nM	1000 to 5000 nM		
CCOC(=O)C1=C2CN(Cc3cc(C)on3)CCN2C(c2nccs2)=N[C@H]1c1ccc(F)cc1Br [Example 94]	1000 to 5000 nM	1000 to 5000 nM		
CCOC(=O)C1=C2C[C@H](C(=O)NS(=O)(=O)C(F)(F)F)CN2C(c2nccs2)=N[C@H]1c1ccc(F)cc1F [Example 137]	1000 to 5000 nM	1000 to 5000 nM		
CCOC(=O)C1=C2C[C@H](CN3CCC[C@H]3C(=O)OC)CN2C(c2nccs2)=N[C@H]1c1ccc(F)cc1Br [Example 22]	1000 to 5000 nM	1000 to 5000 nM		
CCOC(=O)C1=C2C[C@H](NC(=O)OC)CN2C(c2nccs2)=N[C@H]1c1ccc(F)cc1Br [Example 44]	< 100 nM	< 100 nM		
CCOC(=O)CN(C)C[C@H]1CC2=C(C(=O)OCC)[C@H](c3ccc(F)cc3Br)N=C(c3nccs3)N2C1 [Example 20]	1000 to 5000 nM	1000 to 5000 nM		
CCOC(=O)C1=C2C[C@H](N(C)C)CN2C(c2nccs2)=N[C@H]1c1ccc(F)cc1Br [Example 36]	500 to 1000 nM	500 to 1000 nM		
CCOC(=O)C1=C2C[C@H](NC(=O)OC(C)C)CN2C(c2nccs2)=N[C@H]1c1ccc(F)cc1Br [Example 47]	< 100 nM	< 100 nM		
CCOC(=O)C1=C2CN(C(=O)OCC)CCN2C(c2nccs2)=NC1c1ccc(F)cc1Br (stereo not drawn) [Example 82]	100 to 500 nM	100 to 500 nM		
CCOC(=O)C1=C2C[C@@H](N(C)C)CN2C(c2nccs2)=N[C@H]1c1ccc(F)cc1Br [Example 37]	1000 to 5000 nM	1000 to 5000 nM		
CCOC(=O)C1=C2CN(CC(N)=O)CCN2C(c2nccs2)=NC1c1ccc(F)cc1Br (racemic) [Example 95]	100 to 500 nM	100 to 500 nM		
CCOC(=O)C1=C2C[C@H](CS(C)(=O)=O)CN2C(c2nccs2)=N[C@H]1c1ccc(F)cc1Br [Example 114]	100 to 500 nM	100 to 500 nM		
CCOC(=O)C1=C2C[C@@H](C#N)CN2C(c2nccs2)=NC1c1ccc(F)cc1Br (mixture of isomers) [Example 27]			100 to 500 nM	100 to 500 nM
CCOC(=O)C1=C2CCCN2C(c2ncc(F)cc2F)=NC1c1ccc(F)cc1Cl (racemic) [Example 76]	1000 to 5000 nM	1000 to 5000 nM		
CCOC(=O)C1=C2C[C@@H](NS(=O)(=O)C(F)F)CN2C(c2nccs2)=N[C@H]1c1ccc(F)cc1Br [Example 123]	< 100 nM	< 100 nM		
CCOC(=O)C1=C2C[C@@H](c3nnn[nH]3)CN2C(c2nccs2)=N[C@H]1c1ccc(F)cc1Br [Example 33]	1000 to 5000 nM	1000 to 5000 nM		
CCOC(=O)C1=C2C[C@H](NS(C)(=O)=O)CN2C(c2nccs2)=N[C@H]1c1ccc(F)cc1 [Example 145]	500 to 1000 nM	500 to 1000 nM		
CCOC(=O)C1=C2CCCN2C(c2nccn2C)=NC1c1ccc(F)cc1Cl (racemic) [Example 78]	1000 to 5000 nM	1000 to 5000 nM		
